# Where two headings read alike, the source gives them in different places.
# Key:
# in vitro = conditions: dog
# [1] = tested on: influenza A/Puerto Rico/8/34 (H1N1) virus; format: cell-based
# [2] = Simultaneous thermal analysis; format: physicochemical
smiles,measurement,setting,value
"CC(N)C12CC3CC(CC(C3)C1)C2 (stereo not drawn) [Rimantadine, reference compound]",CC50,in vitro,60 ± 4 µg/mL
same,Selectivity index (SI),[1],5
"Nc1c(Br)cc([N+](=O)[O-])cc1-c1nnn(C23CC4CC(CC(C4)C2)C3)n1 [Compound 3h, 2-[2-(Adamantan-1-yl)-2 H -tetrazol-5-yl]-6-bromo-4-nitroaniline]",Selectivity index (SI),[1],11
"Ic1ccc(-c2nnn(C34CC5CC(CC(C5)C3)C4)n2)cc1 [Compound 3a, 2-(Adamantan-1-yl)-5-(4-iodophenyl)-2 H -tetrazole]",Selectivity index (SI),[1]; ratio of CC50 to IC50,1
"Nc1cc(-c2nnn(C34CC5CC(CC(C5)C3)C4)n2)ccc1O [Compound 3i, 4-[2-(Adamantan-1-yl)-2 H -tetrazol-5-yl]-2-aminophenol]",Selectivity index (SI),[1],2
"Clc1ccc(-c2nnn(C34CC5CC(CC(C5)C3)C4)n2)cc1 [Compound 3d, 2-(Adamantan-1-yl)-5-(4-chlorophenyl)-2 H -tetrazole]",Selectivity index (SI),[1],2
"O=[N+]([O-])c1cc(-c2nnn(C34CC5CC(CC(C5)C3)C4)n2)ccc1O [Compound 3g, 4-[(2-Adamantan-1-yl)-2 H -tetrazol-5-yl]-2-nitrophenol]",Temperature from which complete decomposition occurs,"[2]; argon flow, heating rate 10°C/min",≥ 250 °C
same,Temperature of release of molecular nitrogen (loss of weight),"[2]; argon flow, heating rate 10°C/min, strong exothermic effect",156.2 °C
same,Loss of mass at complete decomposition,[2]; starting with 250°C,33.6%

# — article PMC8149581 (Chemistry of Heterocyclic Compounds, 2021)
